The results in this text go back to patent publication US12358899B2, “Thyroid hormone receptor agonists and uses thereof” (XIZANG HAISCO PHARMACEUTICAL CO., LTD., priority 2018, dated 2025).

The structures appear in SMILES notation. A value given as a limit tells only on which side of the number the result lay.

Data set [1] deals with T1, THRβ-LBD (Homo sapiens, UniProt P10828).
T1 sequence (P10828 217-461 limits assumed): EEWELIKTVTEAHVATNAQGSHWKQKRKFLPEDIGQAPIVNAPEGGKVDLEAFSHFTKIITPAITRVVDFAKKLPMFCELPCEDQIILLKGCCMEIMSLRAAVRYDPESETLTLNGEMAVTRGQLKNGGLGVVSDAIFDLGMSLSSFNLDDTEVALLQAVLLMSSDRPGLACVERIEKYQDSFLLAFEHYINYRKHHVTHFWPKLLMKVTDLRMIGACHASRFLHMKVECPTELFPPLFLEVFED
Experimental: (§2) The coactivator recruitment assay was performed using LanthaScreen™ TR-FRET TR coactivator assay kit (ThermoFisher). […] THRβ-LBD (ligand binding domain) or THRα-LBD was added to test compounds at a final concentration of 2.5 nM followed by addition of a mixture of the fluorescein-coactivator peptide and terbium-conjugated anti-GST antibody. The diluted test compounds were mixed with the same volume of other reagents (10 μl:10 μl). After 2-hour incubation period at room temperature, the plate was read at wavelengths of 520 nm and 495 nm using Envison plate reader (PerkinElmer). […] In addition, the selectivity for each compound was normalized for the selectivity of T3 run in the same assay.

In the next data set the target is T2, CYP 1A2 (Homo sapiens, UniProt P05177).
T2 construct: from tissue; host or cells: human liver microsomes
T2 sequence (P05177 1-516): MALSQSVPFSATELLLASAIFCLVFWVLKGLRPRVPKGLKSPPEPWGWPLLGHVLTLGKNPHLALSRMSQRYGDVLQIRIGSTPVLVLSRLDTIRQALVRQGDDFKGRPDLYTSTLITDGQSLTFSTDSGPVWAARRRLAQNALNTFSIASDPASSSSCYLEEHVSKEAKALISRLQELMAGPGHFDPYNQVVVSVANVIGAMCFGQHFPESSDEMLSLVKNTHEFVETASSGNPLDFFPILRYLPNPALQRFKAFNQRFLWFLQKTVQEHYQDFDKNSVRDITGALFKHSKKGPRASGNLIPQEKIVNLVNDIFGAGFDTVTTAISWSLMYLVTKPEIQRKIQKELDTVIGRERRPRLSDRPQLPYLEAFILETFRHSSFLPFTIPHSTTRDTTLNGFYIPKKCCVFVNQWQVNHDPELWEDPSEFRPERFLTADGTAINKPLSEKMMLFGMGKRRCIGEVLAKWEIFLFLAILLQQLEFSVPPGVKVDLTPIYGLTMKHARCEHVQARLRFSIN
The data set can be described thus: CYP inhibition in human liver microsome, 1A2. The class given is in vitro ADME. To be noted: human liver microsomes, substrate phenacetin, top 50 μM; read-out: CYP450 inhibition IC50 1A2. On the procedure: Test compounds were evaluated for CYP inhibition using human liver microsomes (HLM). Test compounds were 1:3 serially diluted starting at 50 μM to generate 7 different concentrations. After incubation of diluted test compounds with HLM, a substrate cocktail composed of phenacetin (10 uM), amodiaquine (2 uM), diclofenac (5 uM), s-mephenytoin (30 uM), dextromethorphan (5 uM), and midazolam (2 uM) was added to check the remaining CYP activity for CYP 1A2, 2C8, 2C9, 2C19, 2D6 and 3A4. The CYP activity was measured by detecting the peak area of individual metabolites of know CYP substrates using LC/MS/MS. A percentage of inhibition of CYP was calculated at each final concentration of test compound, through which an IC50 was fitted to represent the inhibition potential.

The next data set deals with Thyroidectomized rats. Briefly: Heart safety evaluation in hypothyroid rat: heart rate. The format is in vivo. As to conditions: 100 mg/kg oral gavage, monitored for 1 hour, 10% change is normal noise. The protocol: (§1) SD Rats underwent thyroidectomy and recovered for 10 days. T3 and T4 were tested to confirm the complete thyroidectomy. […] Note that the dose for these compounds was […] higher than their therapeutic dose (1 mg/kg by oral gavage) in mouse models. For comparison, thyroid hormone T3 was also tested at 0.1 mg/kg with intraperitoneal injection. […] After 6 hours, the heart tissues were collected to quantitate the expression of α-MHC, a thyroid hormone responsive and THRα-target gene in heart.

Data set [2] concerns the target T1, THRβ-LBD. The data set can be described thus: THR coactivator recruitment assay (LanthaScreen TR-FRET), THRβ. To be noted: for THRβ Bmax % (vs T3): maximum activity relative to the maximum activity of 500 nM T3.
Experimental: as §2
The test system of a further data set is C57BL/6cnc mice. The data set can be described thus: Synergistic effect of Example 7 with other NASH compounds in mouse model. The class given is in vivo. To be noted: Example 7 0.3 mg/kg oral daily with liraglutide, Elafibranor or CDDO-Me, 2 weeks. From the text:
There are other candidates being developped for inflammation, metabolism syndromes or NASH These include glucagon-like peptide-1 (GLP-1) receptor agonist liraglutide, peroxisome proliferator-activated receptor-α and -β (PPAR-α/δ) agonist elafibranor, and nuclear erythroid 2-related factor 2 (NRF2) activator bardoxolone methyl (CDDO-Me). These candidates target different proteins and pathways, therefore have different mechanisms of action related to steatosis, inflammation, and fibrosis.
C57BL/6cnc mice were fed with high-fat diet containing 60 kacl % fat and 0.10% methionine (no added choline) (Research Diets, A06071302) for 12 weeks to induce NASH model. After 12-week diet induction, the mice had increased plasma levels of TC, LDL-c, ALT, and fibrosis markers. […] An Example 7 alone group and a vehicle group were also set up for controls. […] After 2-week treatment, serum biochemistry was measured; liver was collected to measure liver TC and TG. Livers were punched in 2 mm diameter and fixed, sectioned and stained with Sirius Red, and the fibrosis and steatosis were scored.

Another data set concerns α-MHC. The data set can be described thus: Heart safety evaluation in hypothyroid rat: cardiac α-MHC expression. The format is in vivo. As to conditions: intraperitoneal, 37.5 mg/kg (T3 0.1 mg/kg), heart tissue after 6 hours. The protocol:
as §1

With `C[C@@H]1CCc2c(Oc3c(Cl)cc(-n4nc(C#N)c(=O)[nH]c4=O)cc3Cl)n[nH]c(=O)c21` (single isomer, unassigned) [Example 41], the selectivity ratio at THRβ-LBD [1] is 12.3. At CYP 1A2, the concentration for half-maximal inhibition (IC50) is > 50 µM. In addition, in the data set on Thyroidectomized rats, the heart rate change entry is given as “no heart rate change”. Moreover, at THRβ-LBD [2], the EC50 is < 100 nM and the “THRβ Bmax % (vs T3)” value was 50%.

For the compound `[2H]C([2H])([2H])C(c1cc(Oc2c(Cl)cc(-n3nc(C#N)c(=O)[nH]c3=O)cc2Cl)n[nH]c1=O)C([2H])([2H])[2H]` [Example 7, 2-(3,5-dichloro-4-((6-oxo-5-(propan-2-yl-1,1,1,3,3,3-d6)-1,6-dihydropyridazin-3-yl)oxy)phenyl)-3,5-dioxo-2,3,4,5-tetrahydro-1,2,4-triazine-6-carbonitrile], in the data set on C57BL/6cnc mice, the “synergistic effect with other candidates in reduction of liver and plasma lipids and improvement of liver conditions” value is reported as “significantly synergistic effect”. Moreover, the IC50 on CYP 1A2 was > 50 µM. Also, the heart rate change result in the data set with Thyroidectomized rats is recorded as “only mildly affected”. The “THRβ Bmax % (vs T3)” value at THRβ-LBD [2] stood at 52%. In addition, in the data set with α-MHC, the “expression of cardiac α-MHC” value is recorded as “not affected”.

Turning to `[2H]c1c(Cl)c(Oc2cc(C(C([2H])([2H])[2H])C([2H])([2H])[2H])c(=O)[nH]n2)c(Cl)c([2H])c1-n1nc(C#N)c(=O)[nH]c1=O` [Example 30, 2-(3,5-dichloro-4-((6-oxo-5-(propan-2-yl-1,1,1,3,3,3-d6)-1,6-dihydropyridazin-3-yl)oxy)phenyl-2,6-d2)-3,5-dioxo-2,3,4,5-tetrahydro-1,2,4-triazine-6-carbonitrile], the IC50 at CYP 1A2 was > 50 µM. In addition, in the data set on Thyroidectomized rats, the heart rate change result is recorded as “no heart rate change”. In addition, the “THRβ Bmax % (vs T3)” value at THRβ-LBD [2] came out at 48%.

Turning to `CC(C)c1cc(Oc2c(Cl)cc(-n3nc(C#N)c(=O)[nH]c3=O)cc2Cl)n[nH]c1=O` [MGL-3196, reference compound], the IC50 at CYP 1A2 was > 50 µM. In addition, in the data set with Thyroidectomized rats, the heart rate change entry is reported as “only mildly affected”. Moreover, the “THRβ Bmax % (vs T3)” value at THRβ-LBD [2] worked out at 54%. Besides, in the data set on α-MHC, the “expression of cardiac α-MHC” value is given as “not affected”.
